In brackets after ≈: the same amount, converted by molar mass. Activity calls are given as the source filed them. The rule behind the calls is not given here.
Tests used:
Staphylococcus aureus [1] = test: Antibacterial activity against methicillin-resistant Staphylococcus aureus NCTC 10442 assessed as inhibition of bacterial growth incubated for 24 hrs by broth dilution method; format: functional
Escherichia coli [2] = test: Antibacterial activity against Escherichia coli ATCC 25922 assessed as inhibition of bacterial growth incubated for 24 hrs by broth dilution method; format: functional
Acinetobacter baumannii = test: Antibacterial activity against Acinetobacter baumannii R2889 assessed as inhibition of bacterial growth incubated for 24 hrs by broth dilution method; format: functional
Klebsiella pneumoniae = test: Antibacterial activity against Klebsiella pneumoniae ATCC 14581 assessed as inhibition of bacterial growth incubated for 24 hrs by broth dilution method; format: functional
[3] = Hemolytic activity against rabbit blood cells incubated for 1 hr relative to control; format: toxicity, cell-based, Oryctolagus cuniculus, Erythrocyte; settings: rabbit blood cells (erythrocytes)
Staphylococcus aureus [4] = test: Antibacterial activity against Staphylococcus aureus ATCC 29213 assessed as inhibition of bacterial growth incubated for 24 hrs in presence of 2.5 mM Ca2+ by broth dilution method; format: functional
Staphylococcus aureus [5] = test: Antibacterial activity against methicillin-resistant Staphylococcus aureus NCTC 10442 assessed as inhibition of bacterial growth incubated for 24 hrs in presence of 1 mM Mg2+ by broth dilution method; format: functional
Staphylococcus aureus [6] = test: Antibacterial activity against methicillin-resistant Staphylococcus aureus NCTC 10442 assessed as inhibition of bacterial growth incubated for 24 hrs in presence of 4.5 mM K+ by broth dilution method; format: functional
Staphylococcus aureus [7] = test: Antibacterial activity against methicillin-resistant Staphylococcus aureus NCTC 10442 assessed as inhibition of bacterial growth incubated for 24 hrs in presence of 19 uM Zn2+ by broth dilution method; format: functional
Escherichia coli [8] = test: Antibacterial activity against Escherichia coli ATCC 25922 assessed as inhibition of bacterial growth incubated for 24 hrs in presence of 19 uM Zn2+ by broth dilution method; format: functional
Staphylococcus aureus [9] = test: Antibacterial activity against methicillin-resistant Staphylococcus aureus NCTC 10442 assessed as inhibition of bacterial growth incubated for 24 hrs in presence of 20 uM Fe2+ by broth dilution method; format: functional
Staphylococcus aureus [10] = test: Antibacterial activity against methicillin-resistant Staphylococcus aureus NCTC 10442 assessed as inhibition of bacterial growth incubated for 24 hrs in presence of 20 uM Fe3+ by broth dilution method; format: functional
[11] = Cytotoxicity against mouse fibroblast NCTC clone 929 cells assessed as viable cells at 6.25 microg/ml incubated for 24 hrs by CCK-8 assay; format: toxicity, cell-based; settings: NCTC clone 929 (L929) fibroblast cells, at 6.25 µg/mL, read-out: Activity
[12] = Cytotoxicity against human HepG2 cells assessed as viable cells at 25 microg/ml incubated for 24 hrs by CCK-8 assay; format: toxicity, cell-based; settings: at 25 µg/mL, read-out: Activity
Staphylococcus aureus [13] = test: Bactericidal activity against methicillin-resistant Staphylococcus aureus NCTC 10442 assessed as bacterial killing at 4 time of MIC concentration incubated for 2 hrs by time-kill assay; format: functional
Staphylococcus aureus [14] = test: Bactericidal activity against methicillin-resistant Staphylococcus aureus NCTC 10442 assessed as bacterial killing at 8 time of MIC concentration incubated for 0.5 hrs by time-kill assay; format: functional
Staphylococcus aureus [15] = test: Bactericidal activity against methicillin-resistant Staphylococcus aureus NCTC 10442 assessed as bacterial killing at 8 time of MIC concentration incubated for 1 hr by time-kill assay relative to control; format: functional
Lipoteichoic acid [16] = test: Displacement of BODIPY-TR-cadaverine from Bacillus subtilis lipoteichoic acid (LTA) assessed as increase in fluorescence intensity at 2 times MIC measured after 30 mins by fluorescence spectrophotometric analysis
Lipopolysaccharide (LPS) = test: Displacement of BODIPY-TR-cadaverine from Escherichia coli lipopolysaccharide (LPS) assessed as increase in fluorescence intensity at 2 times MIC measured after 30 mins by fluorescence spectrophotometric analysis; format: subcellular
Lipoteichoic acid [17] = test: Displacement of BODIPY-TR-cadaverine from Bacillus subtilis lipoteichoic acid (LTA) assessed as increase in fluorescence intensity at 4 times MIC measured after 30 mins by fluorescence spectrophotometric analysis
Staphylococcus aureus [18] = test: Bactericidal activity against methicillin-resistant Staphylococcus aureus NCTC 10442 assessed as up-regulation of molecular functions related gene expression by measuring glutamate-ammonia ligase activity (GO:0004356) at 4 times of MIC concentration measured after 90 mins incubation by RNA sequencing (RNA-seq) study; format: functional, organism-based
Escherichia coli [19] = test: Bactericidal activity against Escherichia coli ATCC 25922 assessed as down-regulation of galactose metabolic process (GO:0006012) at 4 times of MIC concentration measured after 90 mins incubation by RNA sequencing (RNA-seq) study; format: functional, organism-based
Staphylococcus aureus [20] = test: Bactericidal activity against methicillin-resistant Staphylococcus aureus NCTC 10442 assessed as change in amino acid metabolism gene expression at 4 times of MIC concentration measured after 90 mins incubation by RNA sequencing (RNA-seq) study; format: functional, organism-based
Escherichia coli [21] = test: Bactericidal activity against Escherichia coli ATCC 25922 assessed as down regulation of benzoate degradation gene expression at 4 times of MIC concentration measured after 90 mins incubation by RNA sequencing (RNA-seq) study; format: functional, organism-based
Staphylococcus aureus [22] = test: Bactericidal activity against methicillin-resistant Staphylococcus aureus NCTC 10442 assessed as change in cell death associated gene expression by measuring up-regulation of clfB, DX983_RS14825) and DX983_RS14235 gene expression at 4 times of MIC concentration measured after 90 mins incubation by RNA sequencing (RNA-seq) study; format: functional, organism-based
Escherichia coli [23] = test: Bactericidal activity against Escherichia coli ATCC 25922 assessed as change in cell death associated gene expression by measuring down-regulation of outer membrane lipoprotein-coding gene (slp, D1792_ RS14130; porin, D1792_RS05555) gene expression at 4 times of MIC concentration measured after 90 mins incubation by RNA sequencing (RNA-seq) study; format: functional, organism-based
Escherichia coli [24] = test: Bactericidal activity against Escherichia coli ATCC 25922 assessed as change in cell death associated gene expression by measuring down-regulation of the inner membrane protein-coding gene (yqiJ, D1792_RS11855) gene expression at 4 times of MIC concentration measured after 90 mins incubation by RNA sequencing (RNA-seq) study; format: functional, organism-based
Escherichia coli [25] = test: Bactericidal activity against Escherichia coli ATCC 25922 assessed as change in cell death associated gene expression by measuring down-regulation of LPS export ABC transporter periplasmic-encoding gene (D1792_RS11370) gene expression at 4 times of MIC concentration measured after 90 mins incubation by RNA sequencing (RNA-seq) study; format: functional, organism-based
Staphylococcus aureus [26] = test: In vivo antibacterial activity against Staphylococcus aureus ATCC 29213 infected C57BL6 mouse corneal infection model assessed as reduction in bacterial burden at 3 mg/ml, TOP 4 times in a day for 3 consecutive days; format: functional; settings: time 3 day
Pseudomonas aeruginosa = test: In vivo antibacterial activity against Pseudomonas aeruginosa ATCC 9027 infected C57BL6 mouse corneal infection model assessed as reduction in bacterial burden at 3 mg/ml, TOP 4 times in a day for 2 consecutive days; format: functional; settings: time 2 day
[27] = Toxicity in C57BL6 mouse assessed as signs of toxicity treated in eyeballs 4 times in a day for 3 consecutive days; settings: in vivo, topical_or_ocular

C=C(C)[C@@H]1CCC(C)=C[C@H]1c1c(OCCCNC(=N)N)cc(CCCCC)cc1OCCCNC(=N)N
MIC (Staphylococcus aureus [1]): 0.78 µg/mL (≈ 1.52 µM)
MIC (Escherichia coli [2]): 3.12 µg/mL (≈ 6.09 µM)
MIC (Acinetobacter baumannii): 3.12 µg/mL (≈ 6.09 µM)
MIC (Klebsiella pneumoniae): 1.56 µg/mL (≈ 3.04 µM)
HC50 at 1 h [3]: > 200 µg/mL
MIC (Staphylococcus aureus [4]): 1.56 µg/mL
MIC (Staphylococcus aureus [5]): 0.39 µg/mL
MIC (Staphylococcus aureus [6]): 0.39 µg/mL
MIC (Staphylococcus aureus [7]): 0.39 µg/mL
MIC (Escherichia coli [8]): 0.78 µg/mL
MIC (Staphylococcus aureus [9]): 0.39 µg/mL
MIC (Staphylococcus aureus [10]): 0.39 µg/mL
viability at 24 h, 6.25 microg/ml [11]: 86.2%
viability at 24 h, 25 microg/ml [12]: 92.9%
inhibition (INH) (Staphylococcus aureus [13]): 99.9%
inhibition (INH) (Staphylococcus aureus [14]): 99.9%
inhibition (INH) (Staphylococcus aureus [15]): 100%
Activity (Lipoteichoic acid [16]): 19.8%
Activity (Lipopolysaccharide (LPS)): 54%
Activity (Lipoteichoic acid [17]): 33.7%
Activity (Staphylococcus aureus [18]): Active
Activity (Escherichia coli [19]): Active
Activity (Staphylococcus aureus [20]): Active
Activity (Escherichia coli [21]): Active
Activity (Staphylococcus aureus [22]): Active
Activity (Escherichia coli [23]): Active
Activity (Escherichia coli [24]): Active
Activity (Escherichia coli [25]): Active
Activity (Staphylococcus aureus [26]): 6.99 log10FFU/ml
Activity (Pseudomonas aeruginosa): 6.41 log10FFU/ml
Activity [27]: Non-Toxic

Source: ChEMBL document CHEMBL5543084, “Development of cannabidiol derivatives as potent broad-spectrum antibacterial agents with membrane-disruptive mechanism” (Eur J Med Chem, 2024)
